Source: US20230364118A1, “RIBITOL TREATMENT” (priority 2020, published 2023)
Where two headings read alike, the source gives them in different places.

Columns and labels:
[1] = PK comparison QD, BID, TID oral dosing; assay type: in vivo; conditions: CD-1, mouse, plasma; for AUC(0-inf) / Cmax / half-life: po, 0.3 g/kg
Experimental: Each regimen was studied in 3 male and 3 female CD-1 mice. PK of ribitol following the final dose was compared among these three regimens. The first and the second subsets of mice receiving QD and BID of ribitol were bled at 0.5, 1, 2, 4, and 6 hours post QD dosing and the second dose of the BID dosing, respectively; the third subset of mice receiving TID of ribitol were bled at 0.5, 1, 2, 4 and 12 hours post the third dose.

in vivo = assay: in vivo
Experimental: The purpose of this study was to determine the MTD following a single oral dose (Phase 1) and to characterize the toxicity and toxicokinetic profile following 7 days BID dosing with ribitol (Phase 2).
In Phase 1, Swiss Crl: CD1® mice (5/sex/group) were given ribitol at 0.3, 1.0, 1.5, or 2.0 g/kg/dose BID (0.6, 2.0, 3.0, or 4.0 g/kg/day) with 5 to 7 hours between doses. […] Mice were assessed for viability, clinical signs, body weight, food consumption, and macroscopic findings at necropsy.
Doses were selected for Phase 2 based on the Phase 1 study results and the intended highest clinical dose of 12.0 g/day. In Phase 2, mice (5/sex/group) were given oral doses of 0 (vehicle control, purified water), 0.5, 1.0, or 1.5 g/kg/dose ribitol BID (1.0, 2.0, 3.0 g/kg/day) with 6 hours between doses. Mice were assessed for viability, clinical signs, body weight, food consumption, clinical pathology (hematology and serum chemistry), organ weights (adrenal glands, brain, heart, kidneys, liver with gall bladder, ovaries, spleen, testes, and thymus), and macroscopic pathology at necropsy. Blood was taken from a satellite group of animals (3/sex/timepoint) for plasma TK analysis on Days 1 and 7.

[2] = Functional observational battery (FOB)
Experimental: In this GLP study, the potential effects of ribitol on the CNS were evaluated in CD-1 mice utilizing the FOB. Male mice were randomly assigned to 4 groups of 8 and were administered a single oral dose of 0 (vehicle, purified water), 0.5, 1.0, or 2.0 g/kg ribitol. The FOB tests were conducted pre dose, and at 0.5, 1, 2, 4, and 24 hours post dose.

[3] = Plasma protein binding, animals pooled (range); assay type: in vitro ADME, CD-1 mouse; conditions: CD-1, Sprague-Dawley, Gottingen, mouse, rat, minipig, animal plasma, 0.49 and 1.31 mM
Experimental: Protein binding studies with ribitol were performed in vitro using plasma from CD-1 mouse, Sprague-Dawley rat, Gottingen minipig, and human at 75 μg/mL (0.49 mM) and 200 μg/mL (1.31 mM) using the rapid equilibrium dialysis method. The percent of ribitol bound to plasma was approximately similar between the two concentrations tested in all species.

[4] = 28-day oral GLP toxicity study with 14-day recovery; conditions: mouse
Experimental: The purpose of this GLP study was to assess the potential toxicity, reversibility, persistence, or delayed effects of ribitol in mice following 28 days of BID oral gavage dosing. In addition, 20 mice/sex/group were treated for 28 days with either vehicle (purified water), 0.5, 1.0, or 1.5 g/kg/dose ribitol BID (1.0, 2.0, or 3.0 g/kg/day) followed by 14-day treatment free recovery period. In-life assessments included mortality, clinical signs including detailed clinical observations pre-test and once weekly during the dosing and recovery phase, body weight, food consumption, ophthalmology, and clinical pathology (hematology and serum chemistry). Terminal endpoints included macroscopic pathology, organ weights and histopathology. Blood was taken from a satellite group of mice for plasma TK (3/sex/timepoint) on Days 1 and 28.

[5] = 28-day repeat-dose oral toxicokinetics; assay type: in vivo, CD-1 mouse; conditions: for Tmax / Cmax / AUC(0-t): CD-1, mouse, plasma; for AUC(0-t): read-out: AUC0-24
Experimental: Toxicokinetics of ribitol was evaluated as part of the 28-day toxicology study in male and female CD-1 mice. […] Toxicokinetic animals were 12/sex in the control group and 48/sex/group in the treated groups. Blood samples were collected on Day 1 and Day 28 at pre-first dose, 0.5, 2, 4, 8 (prior to second dose), 8.5, 10, and 24 h.

[6] = female, PO 0.3 g/kg/dose BID, last dose
[7] = female, PO 0.3 g/kg/dose TID, last dose
[8] = male, PO 0.3 g/kg/dose BID, last dose
[9] = male, PO 0.3 g/kg/dose TID, last dose
[10] = both sexes, po, 0.5 g/kg, 0.5 g/kg/dose BID, Day 1, Mean of sexes
[11] = both sexes, po, 0.5 g/kg, 0.5 g/kg/dose BID, Day 28, Mean of sexes
[12] = both sexes, po, 1 g/kg, 1.0 g/kg/dose BID, Day 1, Mean of sexes
[13] = both sexes, po, 1 g/kg, 1.0 g/kg/dose BID, Day 28, Mean of sexes
[14] = both sexes, po, 1.5 g/kg, 1.5 g/kg/dose BID, Day 1, Mean of sexes
[15] = both sexes, po, 1.5 g/kg, 1.5 g/kg/dose BID, Day 28, Mean of sexes
[16] = female, po, 0.5 g/kg, 0.5 g/kg/dose BID, Day 1, Female
[17] = female, po, 0.5 g/kg, 0.5 g/kg/dose BID, Day 28, Female
[18] = female, po, 1 g/kg, 1.0 g/kg/dose BID, Day 1, Female
[19] = female, po, 1 g/kg, 1.0 g/kg/dose BID, Day 28, Female
[20] = female, po, 1.5 g/kg, 1.5 g/kg/dose BID (3.0 g/kg/day, NOAEL), Day 28, Female
[21] = female, po, 1.5 g/kg, 1.5 g/kg/dose BID, Day 1, Female
[22] = male, po, 0.5 g/kg, 0.5 g/kg/dose BID, Day 1, Male
[23] = male, po, 0.5 g/kg, 0.5 g/kg/dose BID, Day 28, Male
[24] = male, po, 1 g/kg, 1.0 g/kg/dose BID, Day 1, Male
[25] = male, po, 1 g/kg, 1.0 g/kg/dose BID, Day 28, Male
[26] = male, po, 1.5 g/kg, 1.5 g/kg/dose BID (3.0 g/kg/day, NOAEL), Day 28, Male
[27] = male, po, 1.5 g/kg, 1.5 g/kg/dose BID, Day 1, Male

OC[C@@H](O)[C@@H](O)[C@@H](O)CO [ribitol, (2R,3s,4S)-Pentane-1,2,3,4,5-pentol]
Tmax ([1]; PO 0.3 g/kg QD, female): 0.5 h
Tmax ([1]; PO 0.3 g/kg QD, male): 0.5 h
AUC(0-inf) ([1]; female, PO 0.3 g/kg QD): 47.1 µg·h/mL
Cmax ([1]; female, PO 0.3 g/kg QD): 33.3 µg/mL
half-life ([1]; female, PO 0.3 g/kg QD): 1.17 h
AUC(0-inf) [1, 6]: 48.3 µg·h/mL
Cmax [1, 6]: 28.3 µg/mL
half-life [1, 6]: 0.984 h
AUC(0-inf) [1, 7]: 40.6 µg·h/mL
Cmax [1, 7]: 43.9 µg/mL
half-life [1, 7]: 0.53 h
AUC(0-inf) ([1]; male, PO 0.3 g/kg QD): 45.2 µg·h/mL
Cmax ([1]; male, PO 0.3 g/kg QD): 34.2 µg/mL
half-life ([1]; male, PO 0.3 g/kg QD): 0.839 h
AUC(0-inf) [1, 8]: 49.6 µg·h/mL
Cmax [1, 8]: 27.4 µg/mL
half-life [1, 8]: 1.5 h
AUC(0-inf) [1, 9]: 28.2 µg·h/mL
Cmax [1, 9]: 31.4 µg/mL
half-life [1, 9]: 0.454 h
mortality, clinical signs, body weight, food consumption, macroscopic findings (in vivo; Phase 1, up to 2.0 g/kg/dose BID (4.0 g/kg/day), 14-day observation): no treatment-related mortality
NOAEL at 7 days (in vivo; both, CD-1, mouse, in vivo, po): 3000 mg/kg/day
NOAEL (in vivo; mouse, in vivo, po): 1.5 g/kg/dose BID
treatment-related effects on FOB parameters ([2]; 0.5, 1.0, 2.0 g/kg, 0.5-24 h post dose): no treatment-related effects
safety margin for proposed clinical starting dose ([2]; male, CD-1, mouse, in vivo, 24 h): 19 fold
NOEL, CNS effects (FOB) ([2]; single oral dose, male, highest dose tested): 2000 mg/kg
fraction unbound [3]: 0.554 to 0.614
NOAEL ([4]; 28 days oral): 1.5 g/kg/dose BID
time to resolution of soft or abnormal stools ([4]; in vivo): 2 to 8 days
drug accumulation ([5]; after 28 days repeated oral administration, any dose level): no apparent ribitol drug accumulation
Tmax ([5]; both sexes, oral, post first dose and post second dose, Day 1 or Day 28): 0.5 h
Cmax [5, 10]: 141 µg/mL
AUC(0-t) [5, 10]: 337 µg·h/mL
Cmax [5, 11]: 140 µg/mL
AUC(0-t) [5, 11]: 422 µg·h/mL
Cmax [5, 12]: 257 µg/mL
AUC(0-t) [5, 12]: 540 µg·h/mL
Cmax [5, 13]: 245 µg/mL
AUC(0-t) [5, 13]: 806 µg·h/mL
Cmax [5, 14]: 384 µg/mL
AUC(0-t) [5, 14]: 1020 µg·h/mL
Cmax [5, 15]: 336 µg/mL
AUC(0-t) [5, 15]: 1090 µg·h/mL
Cmax [5, 16]: 157 µg/mL
Tmax [5, 16]: 8.5 h
AUC(0-t) [5, 16]: 322 µg·h/mL
Cmax [5, 17]: 141 µg/mL
Tmax [5, 17]: 8.5 h
AUC(0-t) [5, 17]: 393 µg·h/mL
Cmax [5, 18]: 227 µg/mL
Tmax [5, 18]: 8.5 h
AUC(0-t) [5, 18]: 520 µg·h/mL
Cmax [5, 19]: 252 µg/mL
Tmax [5, 19]: 0.5 h
AUC(0-t) [5, 19]: 794 µg·h/mL
Cmax [5, 20]: 294 µg/mL
AUC(0-t) [5, 20]: 839 µg·h/mL
Cmax [5, 21]: 334 µg/mL
Tmax [5, 21]: 8.5 h
AUC(0-t) [5, 21]: 1070 µg·h/mL
Tmax ([5]; female, po, 1.5 g/kg, 1.5 g/kg/dose BID, Day 28, Female): 8.5 h
Cmax [5, 22]: 124 µg/mL
Tmax [5, 22]: 0.5 h
AUC(0-t) [5, 22]: 351 µg·h/mL
Cmax [5, 23]: 138 µg/mL
Tmax [5, 23]: 0.5 h
AUC(0-t) [5, 23]: 450 µg·h/mL
Cmax [5, 24]: 286 µg/mL
Tmax [5, 24]: 8.5 h
AUC(0-t) [5, 24]: 559 µg·h/mL
Cmax [5, 25]: 238 µg/mL
Tmax [5, 25]: 8.5 h
AUC(0-t) [5, 25]: 818 µg·h/mL
Cmax [5, 26]: 377 µg/mL
AUC(0-t) [5, 26]: 1340 µg·h/mL
Cmax [5, 27]: 433 µg/mL
Tmax [5, 27]: 8.5 h
AUC(0-t) [5, 27]: 972 µg·h/mL
Tmax ([5]; male, po, 1.5 g/kg, 1.5 g/kg/dose BID, Day 28, Male): 8.5 h
